# US20200375929A1, “METHODS AND COMPOSITIONS FOR THE TREATMENT OF DISEASES ASSOCIATED WITH CANCER, INFLAMMATION, OR IMMUNE RESPONSE” (Washington University, priority 2017, published 2020)
# Entries after “also recorded” stand apart in the source; their conditions may differ. Counter-ions that a name gives are not always drawn. Where a SMILES comes first, the peptide text is derived from it. The star is where a group is joined. Cbz = O=C(OCc1ccccc1)*
# Legend:
# IκBζ [1] = assay: LPS-induced Ikb-ζ protein induction in BMDMs (western blot); format: cell-based, mouse; details: for LPS-induced Ikb-ζ induction, protein level: BMDMs treated with compound 12 h, then LPS 100 ng/ml; for effect of added agent on Ikb-ζ induction in DI-treated cells: DI 12 h plus agent
# Procedure: (§1) BMDM were prepared from 6- to 12-week-old mice as described 1 and cultured in RMPI-1640 medium supplemented with 10% fetal bovine serum (FBS), 2 mM L-glutamine, and 100 U/mL penicillin-streptomycin and mouse recombinant M-CSF ([…], Peprotech). For experiments, cells were seeded at concentration 10^6 cells/mL in tissue culture plates of various formats. The cells were treated with DI (250 μM (unless stated otherwise), cat #592498, Sigma), DMF (50 μM (unless stated otherwise), cat #242926, Sigma), 3-(ethoxycarbonyl)but-3-enoic acid (3MI, 5 μM, Aris Pharmaceuticals Inc.), 4-ethoxy-2-methylene-4-oxobutanoic acid (MI, Aris Pharmaceuticals Inc.) for 12 h and activated with lipopolysaccharide (LPS; 100 ng/mL; E. coli 0111:B4, Sigma) for 1 h or as indicated. In some experiments cells were stimulated with combination of LPS (20 ng/mL) and IFN-γ (50 ng/mL; Peprotech). In some experiments cells were treated with α-tocopherol (AT, 10 μM; Sigma), MitoTEMPO (MT, 500 μM; Sigma), N-acetylcysteine (NAC, 1 mM, Sigma), ethylester of GSH (EtGSH; 1 mM, Santa Cruz) or buthionene sulfoximine (BSO, 500 μM, Sigma) alone or in combination with DI for 12 h. In some experiments BMDMs were treated with DI for 12 h and bafilomycin A (BafA, 100 nM, Sigma) or MG132 (10 μM, Selleckchem) were added 30 min before subsequent LPS stimulation.
# Cells were lysed in RIPA Lysis Buffer System (Santa Cruz) and heat-denatured at 95° C. for 5 min in reducing sample buffer (BioRad). Proteins were separated on 4%-20% polyacrylamide gradient gels (BioRad) and transferred onto 0.45 μm pore size PVDF membranes (Millipore). Non-specific binding was blocked with 5% skim milk (or 5% BSA when phospho-proteins were analyzed), and membranes were probed with primary antibodies specific to Nrf2 (#12721), HO-1 (#70081), IκBζ (mouse specific, #93726), IκBζ(#9244), ATF3 (#D2Y5W), IRAK1 (#4504; sensitivity of IRAK1 detection diminishes upon IRAK1 K63 ubiquitination), phospho-IKK (Ser176/180, #2697), p62/SQSTM1 (#5114), phospho-eIF2α (Ser51, #9721), eIF2α (#5324) from Cell Signaling; GAPDH (sc-25778), IκBα (sc-1643), ATF3 (sc-188), SDHA (sc-166909) from Santa Cruz; NQO1 (ab28947) from Abeam, followed by incubation with anti-rabbit-HRP (1:10,000; sc-2030) or anti-mouse-HRP (1:10,000; sc-2031) from Santa Cruz and Clarity western ECL substrate (Bio-Rad). Membranes were exposed to X-Ray films (Research Products International Corp.) and developed using SRX-101A film processor (Konica Minolta). GAPDH run on the same blot was used as loading control. After scanning of original films image brightness of some blots was adjusted and bands were cropped using ImageJ. Densitometry was performed using ImageJ.
# IL6, IL12, IL1b, TNFα = assay: Cytokine production in LPS-stimulated BMDMs (ELISA); format: cell-based, mouse; details: then LPS; for LPS-induced cytokine production: BMDMs pretreated 12 h; for effect of co-treatment on DI-mediated inhibition of cytokine (IL6) production: agent added simultaneously with DI
# Procedure: as §1
# Cytokines in cell supernatants were analyzed using DuoSet® ELISA kits according to manufacturer protocol (R&D Systems). The supernatants from BMDMs were diluted 1:4, from human blood monocytes 1:3.
# Nrf2 = Nrf2 response in BMDMs (western blot, target genes); format: cell-based, mouse; details: 12 h treatment
# Procedure: as §1, with “In some experiments BMDMs were treated with DI for 12 h and bafilomycin A (BafA, 100 nM, Sigma) or MG132 (10 μM, Selleckchem) were added 30 min before subsequent LPS stimulation.” left out
# (§2) Cells were lysed in RIPA Lysis Buffer System (Santa Cruz) and heat-denatured at 95° C. for 5 min in reducing sample buffer (BioRad). […] Non-specific binding was blocked with 5% skim milk (or 5% BSA when phospho-proteins were analyzed), and membranes were probed with primary antibodies specific to Nrf2 (#12721), HO-1 (#70081), IκBζ (mouse specific, #93726), IκBζ(#9244), ATF3 (#D2Y5W), IRAK1 (#4504; sensitivity of IRAK1 detection diminishes upon IRAK1 K63 ubiquitination), phospho-IKK (Ser176/180, #2697), p62/SQSTM1 (#5114), phospho-eIF2α (Ser51, #9721), eIF2α (#5324) from Cell Signaling; GAPDH (sc-25778), IκBα (sc-1643), ATF3 (sc-188), SDHA (sc-166909) from Santa Cruz; NQO1 (ab28947) from Abeam, followed by incubation with anti-rabbit-HRP (1:10,000; sc-2030) or anti-mouse-HRP (1:10,000; sc-2031) from Santa Cruz and Clarity western ECL substrate (Bio-Rad). […]
# STAT3 = STAT3 activation in LPS-stimulated BMDMs (western blot); format: cell-based, mouse; details: BMDMs, 12 h pretreatment
# Procedure: as §1, with “In some experiments BMDMs were treated with DI for 12 h and bafilomycin A (BafA, 100 nM, Sigma) or MG132 (10 μM, Selleckchem) were added 30 min before subsequent LPS stimulation.” left out
# as §2
# HBL1 cells line (ABC) = assay: DLBCL cell viability, resazurin assay, ABC subtype; format: cell-based; details: HBL1, 4 days, refreshed daily; DI 125-250 μM
# [2] = tested on: LY1 and LY7 (GCB) cell lines; assay: DLBCL cell viability, resazurin assay, GCB subtype; format: cell-based; details: LY1 and LY7, 4 days, refreshed daily; DI 125-250 μM
# ATF3 = ATF3 protein expression (western blot); format: cell-based, mouse; details: mouse macrophages and human monocytes, DI plus agent
# Procedure: as §1, with “In some experiments BMDMs were treated with DI for 12 h and bafilomycin A (BafA, 100 nM, Sigma) or MG132 (10 μM, Selleckchem) were added 30 min before subsequent LPS stimulation.” left out
# as §2
# IκBζ [3] = assay: Ikb-ζ protein in LPS-stimulated human monocytes (western blot); format: cell-based; details: human blood monocytes, DI plus agent, LPS 1 h
# Procedure: Cells were lysed in RIPA Lysis Buffer System (Santa Cruz) and heat-denatured at 95° C. for 5 min in reducing sample buffer (BioRad). Proteins were separated on 4%-20% polyacrylamide gradient gels (BioRad) and transferred onto 0.45 μm pore size PVDF membranes (Millipore). Non-specific binding was blocked with 5% skim milk (or 5% BSA when phospho-proteins were analyzed), and membranes were probed with primary antibodies specific to Nrf2 (#12721), HO-1 (#70081), IκBζ (mouse specific, #93726), IκBζ(#9244), ATF3 (#D2Y5W), IRAK1 (#4504; sensitivity of IRAK1 detection diminishes upon IRAK1 K63 ubiquitination), phospho-IKK (Ser176/180, #2697), p62/SQSTM1 (#5114), phospho-eIF2α (Ser51, #9721), eIF2α (#5324) from Cell Signaling; GAPDH (sc-25778), IκBα (sc-1643), ATF3 (sc-188), SDHA (sc-166909) from Santa Cruz; NQO1 (ab28947) from Abeam, followed by incubation with anti-rabbit-HRP (1:10,000; sc-2030) or anti-mouse-HRP (1:10,000; sc-2031) from Santa Cruz and Clarity western ECL substrate (Bio-Rad). […]
# Blood from healthy donors was acquired from LRS chambers supplied by the Mississippi Valley Regional Blood Center. […] After extensive washes to allow removal of non-adherent cells, monocytes (>95% purity) were harvested, counted and 5×10^5 cells were plated per well in 24-well plates. […]
smiles,measurement,setting,value
"COC(=O)/C=C/C(=O)OC [DMF, Dimethyl fumarate, reference compound]","LPS-induced Ikb-ζ induction, protein level",IκBζ [1],strongly inhibited Ikb-ζ induction; also recorded: inhibited IκBζ induction
same,LPS-induced cytokine production,"IL6, IL12, IL1b, TNFα",inhibit IL6 but not TNF production; also recorded: selective inhibition of IL-6
same,"Nrf2 response (Nrf2 protein, target genes)",Nrf2,triggered Nrf2 response
same,STAT3 activation (Y705 phosphorylation),STAT3,effective to inhibit STAT3 activation
"CN1CCCC(CN2c3ccccc3Sc3ccccc32)C1 (stereo not shown) [Mepazine, mepazine, reference compound]","growth / toxicity, ABC DLBCL",HBL1 cells line (ABC),inhibited growth of HBL1
same,"growth / toxicity, GCB DLBCL",[2],not LY1 and LY7
"COC(=O)CC(=O)OC [DM, Dimethyl malonate, reference compound]","LPS-induced Ikb-ζ induction, protein level",IκBζ [1],does not affect Ikbζ expression
"C=C(CC(=O)OCC)C(=O)O [MI, 4-ethoxy-2-methylene-4-oxobutanoic acid]","LPS-induced Ikb-ζ induction, protein level",IκBζ [1],did not
same,effect on IκBζ/IL-6 in combination with BSO,"IκBζ [1]; BMDMs, compound plus BSO 500 μM, LPS",unlocked the effect
"C=C(CC(=O)O)C(=O)OCC [3MI, 3-(ethoxycarbonyl)but-3-enoic acid]","LPS-induced Ikb-ζ induction, protein level",IκBζ [1],inhibited IκBζ induction
"CC(C)C[C@@H](C=O)NC(=O)[C@H](CC(C)C)NC(=O)[C@H](CC(C)C)NC(=O)OCc1ccccc1 [MG132, reference compound] (Cbz-Leu-Leu-Leu-aldehyde)",effect of added agent on Ikb-ζ induction in DI-treated cells,"IκBζ [1]; BMDMs, LPS",did not affect Ikb-ζ levels; also recorded: neither rescued IκBζ induction
"CC(=O)N[C@@H](CS)C(=O)O [NAC, N-acetylcysteine]",effect of added agent on Ikb-ζ induction in DI-treated cells,"IκBζ [1]; BMDMs, LPS",restored Ikb-ζ production; also recorded: restored LPS-mediated IκBζ induction
same,effect of co-treatment on DI-mediated inhibition of cytokine (IL6) production,"IL6, IL12, IL1b, TNFα",completely abrogated effect of DI when added simultaneously with DI
same,effect of co-treatment on DI-mediated inhibition of cytokine (IL6) production,"IL6, IL12, IL1b, TNFα; listed as N-acetylcysteine",reversed the effect of DI
same,DI-mediated ATF3 expression upon co-treatment,ATF3,efficiently decreased
"CCCCS(=N)(=O)CCC(N)C(=O)O (stereo not shown) [BSO, buthionine sulfoximine, reference compound]",LPS-induced cytokine production,"IL6, IL12, IL1b, TNFα",does not inhibit cytokine production
same,"Nrf2 response (Nrf2 protein, target genes)",Nrf2,nor trigger Nrf2 response
"CO/C1=C\C(C)=C\[C@@H](C)[C@@H](O)[C@@H](C)C/C(C)=C/C=C/[C@H](OC)[C@@H]([C@@H](C)[C@@H](O)[C@H](C)[C@@]2(O)C[C@@H](O)[C@H](C)[C@@H](C(C)C)O2)OC1=O [bafilomycin A, reference compound]",effect of added agent on Ikb-ζ induction in DI-treated cells,"IκBζ [1]; BMDMs, LPS",neither rescued IκBζ induction
"CCOC(=O)CNC(=O)[C@H](CS)NC(=O)CC[C@H](N)C(=O)O [EtGSH, ethylester of GSH, reference compound]",effect of added agent on Ikb-ζ induction in DI-treated cells,"IκBζ [1]; BMDMs, LPS",restored LPS-mediated IκBζ induction
same,effect of co-treatment on DI-mediated inhibition of cytokine (IL6) production,"IL6, IL12, IL1b, TNFα",reversed the effect of DI
same,effect of co-treatment on IκBζ induction in DI-treated cells,IκBζ [3],restored LPS-mediated IκBζ induction
same,DI-mediated ATF3 expression upon co-treatment,ATF3,efficiently decreased
